{"source": "patent US20030190368A1", "about": "“METHODS OF DIAGNOSIS AND TRIAGE USING CELL ACTIVATION MEASURES” (priority 1998, published 2003)", "test_system": "isolated naive human neutrophils", "assay": "Pseudopod formation test: protease inhibitors against pancreatic homogenate-induced neutrophil activation", "type": "cell-based", "protocol": "For the pseudopod assay, venous blood is collected in heparinized tubes from healthy human volunteers and put on ice. It is important that heparin and not EDTA ([…]) be used as an anticoagulant, as the calcium-chelating properties of EDTA can affect neutrophil activation. […] Other chemicals for the Krebs-Henseleit buffer are from Fisher Scientific, Fair Lawn, N.J. The resuspended cells are then gently layered onto 2.5 ml of a 55% isotonic Percoll (Sigmal Chemical Company) solution and 2.5 ml of a 74% isotonic Percoll solution in deionized water. The suspension is centrifuged for 15 minutes at 600 G and the middle granulocyte layer is removed and resuspended in PBS to achieve a concentration of 10^6 neutrophils/ml. 100 μl aliquots of suspended neutrophils are added to 100 μl of test plasma or activating agent. This mixture is mixed and then incubated for 10 minutes at 27° C. After incubation 100 μl of 3% glutaraldehyde (Fisher Scientific) is added to stop the reaction. 100 μl of crystal violet in phosphate (pH: 7.4) buffer is then added to stain leukocyte nuclei on wet mount preparations. Freely suspended neutrophils with pseudopodia are identified by their segmented nuclei and the presence of cytoplasmic granules. One hundred neutrophils are counted. Cells with pseudopod projection greater than about 1 um are considered positive.\nRat homogenate was collected as described in detail in Example 5. Briefly, male Wistar rats (250-350 gm) were housed in a controlled environment and maintained on a standard pellet diet for at least three days before initiation of experimental procedures. Animals were cannulated via the femoral arteries and vein under general anesthesia using pentobarbital (50 mg/kg i.m.). The rats were exsanguinated and the heart, liver, spleen, small intestine, and pancreas removed. The organs were immediately washed and cleaned in cold 0.25 M sucrose solution. Then, the cleaned organs were vigorously homogenized in Krebs-Henseleit solution ([…]). Aliquots were filtered by centrifugation at 500 G for 10 min. Pancreatic homogenates were incubated for 2.5 hours at 38° C., stirred frequently. Incubated pancreatic homogenate as well as controls were tested against naive human donor neutrophils for pseudopod formation as described in Example 2.\nTo determine whether or not neutrophil activation by pancreatic homogenate is protease dependent, the pseudopod formation test was repeated by preincubation of isolated neutrophils with various protease inhibitors (50 μl) for 10 minutes followed by addition of pancreas homogenate (50 μl) and further incubation for 10 minutes. […] All protease inhibitors were the gift of Dr. Tony E. Hugli of The Scripps Clinic and Research Institute, with the exception of Complete™, an all-purpose protease inhibitor purchased from Boehringer Mannheim, Indianapolis, Ind. One of the components of Complete™ is EDTA (ethylenediaminetetra-acetic acid), a standard anti-coagulant and divalent cation chelator.\nTo determine whether the protease inhibitors were acting on the pancreatic homogenate or the neutrophils themselves, a new set of neutrophil pseudopod experiments was carried out. […] Appropriate controls were recorded as well as a positive control (10^−7 M fMLP) to determine the washed cells' ability to respond to stimuli. Formyl-methionyl-leucyl-phenylalanine (fMLP) was obtained from Sigma Chemical Company, St. Louis, Mo.", "note": "Entries after “also recorded” stand apart in the source; their conditions may differ."}
{"smiles": "CS(=O)(=O)O.CS(=O)(=O)O.N=C(N)Nc1ccc(C(=O)Oc2ccc3cc(C(=N)N)ccc3c2)cc1", "note": "[Futhan, 6-amidino-2-naphthyl p-guanidinobenzoate dimethanesulfonate]", "values": [{"measurement": "percent neutrophil activation, Wash group", "setting": "neutrophils incubated 10 min with Futhan 0.1 mg/ml, washed two times, then pancreatic homogenate 10 min", "result": "53.5±31", "unit": "%"}, {"measurement": "percent neutrophil pseudopod formation (activation) by rat pancreatic homogenate in presence of protease inhibitor", "setting": "neutrophils preincubated 10 min with inhibitor (PMSF 1 mM; Complete 1 tablet/20 ml; Benzamidine 1150 μM; Futhan 0.1 mg/ml; aprotinin 20 μM), then homogenate 10 min, homogenate alone 85.1±11.5%", "result": "30.3±11.8", "unit": "%"}, {"measurement": "inhibition of pancreatic homogenate-induced neutrophil activation (in words)", "setting": "pseudopod formation, rat pancreatic homogenate, dimethanesulfonate", "result": "abolished pancreatic homogenate-induced activation; also recorded: dose-dependent inhibition"}, {"measurement": "percent neutrophil activation, Inhibitor group", "setting": "washed neutrophils incubated with combined Futhan 0.1 mg/ml and pancreatic homogenate", "result": "51.5±34", "unit": "%"}]}
